Measured values from article PMC6100724, “Proteome‐wide analysis of phospho‐regulated PDZ domain interactions” (Molecular Systems Biology, 2018).
One block for each sequence: values may come before it.

Key:
Experiment in all cases: Phosphomimetic ProP-PD selection with NGS
Scribble PDZ3 = assay type: binding, human; conditions: bait Scribble PDZ3
Description: (§1) Phage selections were carried out for four rounds following a protocol by Huang and Sidhu (Huang & Sidhu, 2011) with minor modifications. Non‐specific binding phage was removed by pre‐selections against immobilized GST throughout the selection. The selections against the (pre‐)phosphorylated wild‐type library were performed in 50 mM HEPES (pH 7.4) and 150 mM NaCl (HBS) following the same procedure after pre‐phosphorylation of the library.
(§2) • Immobilize proteins (15 μg in 100 μl PBS) in a 96‐well MaxiSorp microtiter plate (NUNC) overnight at 4°C. • Start a 2YT culture of E. coli Omnimax supplemented with 100 μg/ml tetracycline to retain the F pilus epitope. • Block the wells with 200 μl 0.5% BSA in PBS for 2 h at 4°C. • Precipitate naïve phage library (10^11 cfu per selection) or amplified phage pool from the previous round of selection by adding one‐fifth the volume of PEG/NaCl. • Incubate on ice for 10 min, and pellet precipitated phage by centrifugation at 5,300 g for 15 min. Resuspend the phage pellet in 100 μl PBS per selection. • Add 100 μl of phage solution to the GST‐coated pre‐selection wells and incubate for 1 h. • Transfer the phage solution to the immobilized target proteins and allow it to bind for 2 h at 8°C. • Wash the plate four times with 200 μl cold wash buffer (PBS, 0.05% Tween‐20). • Elute bound phage by incubation with 100 μl log phase (0.6–0.8 OD600) E. coli Omnimax for 30 min at 37°C with shaking (200 RPM). • Add 10^12 cfu/ml M13K07 helper phage for hyperinfection of the bacteria and incubate as above for 45 min. • Transfer the bacterial culture to 10 ml 2YT supplemented with 50 μg/ml carbenicillin, 25 μg/ml kanamycin, and 300 μM IPTG and incubate overnight at 37°C while shaking. • Perform phage pool ELISA to monitor the progress of the selection as described previously (Huang & Sidhu, 2011).
(§3) The naïve library and the enriched phage pools of the third day of selection were amplified and barcoded by PCR and analyzed by NGS as described elsewhere (McLaughlin & Sidhu, 2013; Ivarsson et al, 2014). The reads were demultiplexed using the barcode sequences and filtered by discarding sequences with a Phred quality score under 30. Sequences were mapped to the original library using Bowtie (Langmead et al, 2009) with two mismatches between reads and library sequence. Nucleotide mutations leading to amino acid substitutions were subsequently removed. Cutoff values of NGS counts were assigned for each pool. PWMs were generated based on the remaining peptides (aligned on the C‐termini) using WebLogo (Crooks et al, 2004).
(§4) However, there was no significant correlation of the actual read counts (selection “strength”) and the initial representation in the library, reflecting the strong selection during phage display (wt+mimetic: P‐value: 0.49, ρ = −0.08, mimetic only: P‐value: 0.069, ρ = −0.2, wt only: P‐value: 0.12, ρ = 0.17). Consequently, the amount of reads for each binder after phage display is not a function of the amount of input reads in the naïve library and no modeling based on the input library frequencies to score the interactions is necessary. To allow for comparison between replicate selections, we used the fraction of NGS reads within a certain set, instead of the absolute number of NGS reads, as the absolute numbers differ between different NGS batches.

DLG1 PDZ2 = molecular target: T1, DLG1 PDZ2 (Homo sapiens, UniProt Q12959); assay type: binding; conditions: mean of selections 1-3, bait DLG1 PDZ2
T1 construct: human DLG1 PDZ2 aa 311–407 in a modified pRSET vector 40; made in house; host or cells: E. coli BL21 Gold (DE3)
T1 sequence (Q12959 311-407): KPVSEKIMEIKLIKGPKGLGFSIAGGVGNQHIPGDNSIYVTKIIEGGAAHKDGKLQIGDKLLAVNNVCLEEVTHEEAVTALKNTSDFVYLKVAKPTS
Description: as §1, §2, §3, §4

Scribble PDZ1 = molecular target: T2, Scribble PDZ1 (Homo sapiens, UniProt Q14160); assay type: binding; conditions: bait Scribble PDZ1; mean of selections 1-3
T2 construct: human Scribble PDZ1 aa 719–829 in; made in house; host or cells: E. coli BL21 Gold (DE3)
T2 sequence (Q14160 719-829): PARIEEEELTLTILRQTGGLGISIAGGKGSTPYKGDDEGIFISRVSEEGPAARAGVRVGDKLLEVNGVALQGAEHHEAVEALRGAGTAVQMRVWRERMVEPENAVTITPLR
Description: as §1, §2, §3, §4

[1] = mean of selections 1-3, phosphomimetic peptide
[2] = mean of selections 1-3, wild type peptide

Mean fraction #NGS counts mimetic peptide / total count selection (DLG1 PDZ2): 0
Sequence: HFESLESEV

Mean fraction #NGS counts wt peptide / total counts selection (DLG1 PDZ2; wild type peptide): 0.02056
Sequence: RSSMKPGFV

Mean fraction #NGS counts wt peptide / total counts selection (Scribble PDZ1): 0
Sequence: VKRLLSSVF

Mean fraction #NGS counts wt peptide / total counts selection (Scribble PDZ1): 6.957e-5
Sequence: VRKLPSTTL
Mean fraction #NGS counts wt peptide / total counts selection (Scribble PDZ3; [2]): 8.076e-6
Mean fraction #NGS counts wt peptide / total counts selection (Scribble PDZ3; mean over selections 1-3): 8.076e-6

Mean fraction #NGS counts mimetic peptide / total count selection (DLG1 PDZ2): 0.001455
Sequence: IEFTQTEQF

Mean fraction #NGS counts wt peptide / total counts selection (Scribble PDZ1): 0.0009794
Sequence: PIHSLETSL
Mean fraction #NGS counts wt peptide / total counts selection (Scribble PDZ3; [2]): 0.001163
Mean fraction #NGS counts wt peptide / total counts selection (Scribble PDZ3; mean over selections 1-3): 0.001163

Mean fraction #NGS counts mimetic peptide / total count selection (DLG1 PDZ2): 7.62e-5
Sequence: LRLQSETEV

Mean fraction #NGS counts wt peptide / total counts selection (DLG1 PDZ2): 0
Sequence: GLMKRRSSV

Mean fraction #NGS counts mimetic peptide / total count selection (Scribble PDZ1): 0.008773
Sequence: RPHTNETEL
Mean fraction #NGS counts mimetic peptide / total count selection (Scribble PDZ3; mean over selections 1-3): 0.00587

Mean fraction #NGS counts mimetic peptide / total count selection (Scribble PDZ1): 0.0004614
Sequence: HEKVFESAL
Mean fraction #NGS counts mimetic peptide / total count selection (Scribble PDZ3; mean over selections 1-3): 0.07851

Mean fraction #NGS counts mimetic peptide / total count selection (DLG1 PDZ2): 0
Sequence: RATEWYSPY

Mean fraction #NGS counts mimetic peptide / total count selection (DLG1 PDZ2): 0
Mean fraction #NGS counts wt peptide / total counts selection (DLG1 PDZ2): 0.0003449
Sequence: LKSGRDSTV

Mean fraction #NGS counts wt peptide / total counts selection (DLG1 PDZ2): 5.084e-5
Sequence: HFSSLESEV

Mean fraction #NGS counts mimetic peptide / total count selection (DLG1 PDZ2): 6.06e-5
Sequence: GLMKRRSEV

Mean fraction #NGS counts wt peptide / total counts selection (DLG1 PDZ2): 6.749e-6
Sequence: ISFTQTSQF

Mean fraction #NGS counts wt peptide / total counts selection (Scribble PDZ1): 0.000119
Sequence: LAPNIISQL

The remaining lines, values behind:

Sequence: KEEPFLTWL
Mean fraction #NGS counts mimetic peptide / total count selection (Scribble PDZ3; mean over selections 1-3): 0.001054

Sequence: GEGGRQSVV
Mean fraction #NGS counts mimetic peptide / total count selection (DLG1 PDZ2; phosphomimetic peptide): 9.343e-5

Sequence: DSSILSTVV
Mean fraction #NGS counts wt peptide / total counts selection (DLG1 PDZ2): 0.0001102

Sequence: PIHSLEESL
Mean fraction #NGS counts mimetic peptide / total count selection (Scribble PDZ1): 0
Mean fraction #NGS counts mimetic peptide / total count selection (Scribble PDZ3; mean over selections 1-3): 7.932e-6

Sequence: MRLQEETSV
Mean fraction #NGS counts mimetic peptide / total count selection (DLG1 PDZ2): 0.0002419

Sequence: LSIEKEEKL
Mean fraction #NGS counts mimetic peptide / total count selection (Scribble PDZ3; mean over selections 1-3): 3.894e-6

Sequence: ERLEYEETL
Mean fraction #NGS counts mimetic peptide / total count selection (Scribble PDZ3; mean over selections 1-3): 0

Sequence: LSIEKETKL
Mean fraction #NGS counts wt peptide / total counts selection (Scribble PDZ3; mean over selections 1-3): 0.01518

Sequence: IEWLAFSVL
Mean fraction #NGS counts mimetic peptide / total count selection (Scribble PDZ1): 4.38e-5

Sequence: KKRMVESPL
Mean fraction #NGS counts wt peptide / total counts selection (Scribble PDZ3; mean over selections 1-3): 0.000138

Sequence: VRKLPETEL
Mean fraction #NGS counts mimetic peptide / total count selection (Scribble PDZ1): 4.38e-5
Mean fraction #NGS counts mimetic peptide / total count selection (Scribble PDZ3; [1]): 0.01059

Sequence: PIHELETEL
Mean fraction #NGS counts mimetic peptide / total count selection (Scribble PDZ3; [1]): 0.0005099

Sequence: PIHELETSL
Mean fraction #NGS counts mimetic peptide / total count selection (Scribble PDZ1): 0
Mean fraction #NGS counts mimetic peptide / total count selection (Scribble PDZ3; mean over selections 1-3): 0

Sequence: ISYRRESAI
Mean fraction #NGS counts mimetic peptide / total count selection (DLG1 PDZ2): 0
Mean fraction #NGS counts wt peptide / total counts selection (DLG1 PDZ2): 1.436e-5
Mean fraction #NGS counts wt peptide / total counts selection (Scribble PDZ3; mean over selections 1-3): 0.0002548

Sequence: VTEERETNI
Mean fraction #NGS counts mimetic peptide / total count selection (Scribble PDZ3; mean over selections 1-3): 4.038e-6

Sequence: IPLTRTTTF
Mean fraction #NGS counts wt peptide / total counts selection (Scribble PDZ3; mean over selections 1-3): 0

Sequence: PEHVLQTQI
Mean fraction #NGS counts mimetic peptide / total count selection (Scribble PDZ1): 0.0001068

Sequence: ERLEYETEL
Mean fraction #NGS counts mimetic peptide / total count selection (Scribble PDZ3; [1]): 3.548e-5

Sequence: VREKLPSNL
Mean fraction #NGS counts mimetic peptide / total count selection (Scribble PDZ1): 0

Sequence: NSTNMESSL
Mean fraction #NGS counts wt peptide / total counts selection (Scribble PDZ3; [2]): 0

Sequence: GSGGRQSVV
Mean fraction #NGS counts wt peptide / total counts selection (DLG1 PDZ2; wild type peptide): 0.003121

Sequence: PLHELETEL
Mean fraction #NGS counts mimetic peptide / total count selection (Scribble PDZ3; [1]): 0.00248

Sequence: RPLRREEEI
Mean fraction #NGS counts mimetic peptide / total count selection (Scribble PDZ3; mean over selections 1-3): 0

Sequence: KSEPFLTWL
Mean fraction #NGS counts wt peptide / total counts selection (Scribble PDZ3; mean over selections 1-3): 0.002017

Sequence: EIDLWETAL
Mean fraction #NGS counts mimetic peptide / total count selection (Scribble PDZ3; mean over selections 1-3): 0.0004512

Sequence: MKRLTSTRL
Mean fraction #NGS counts wt peptide / total counts selection (Scribble PDZ1): 2.8701e-5
Mean fraction #NGS counts wt peptide / total counts selection (Scribble PDZ3; mean over selections 1-3): 3.6122e-5
